Experimental data: paper PMC8294059, “Identification and Immune Assessment of T Cell Epitopes in Five Plasmodium falciparum Blood Stage Antigens to Facilitate Vaccine Candidate Selection and Optimization” (Frontiers in Immunology, 2021)
Like-named read-outs stand apart in the source and are kept apart here. Where a SMILES comes first, the peptide text is derived from it.

Legend:
HLA-B*4402 = HLA-B*4402 (Homo sapiens, UniProt P01889, A223V/A65T/A93T/A95T/D201E/D98Y/E176V/E187L/E204Q/E69K/G107R/H137Y/K202T/L105A/L119I/N104T/N87E/Q56L/Q94N/R106L/R155S/R180D/S101N/S121R/S35A/S48T/T118I/V36M/W191S/Y140D/Y91S); assay: In vitro class I HLA binding assay (fluorescence polarization competition); conditions: allele B*4402
In short: (§1)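 Cell-free competition assay: HLA heat-treated 53°C for 15 min to strip endogenous peptides, then mixed with fluorescent high-affinity control peptide and test peptides for 72 h to equilibrium. Displacement read by fluorescence polarization as percent inhibition; IC50 derived from a concentration range.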

HLA-A*0301 = HLA-A*0301 (Homo sapiens, UniProt P04439); assay: biochemical; assay type: binding; conditions: allele A*0301; fluorescence polarization competition; read-out: IC50 (nM), in vitro HLA binding affinity
In short: as §1

HLA-DRB1*0301 = HLA-DRB1*0301 (Homo sapiens, UniProt P01903+P01911, A100K/A102G/A103R/A169T/F55Y/I96L/K41T/L162R/M171V/P40S/Q125H/Q178H/Q39Y/R42S/S66N/T106N/T262R/W38E/Y61H); assay: biochemical; assay type: binding; conditions: binding inhibition assay; NB = non-binder (no dose-dependent inhibition); read-out: DRB1*0303 IC50
HLA-DRB1*0301, sequence (P01903 26-254 limits assumed, other chains not shown): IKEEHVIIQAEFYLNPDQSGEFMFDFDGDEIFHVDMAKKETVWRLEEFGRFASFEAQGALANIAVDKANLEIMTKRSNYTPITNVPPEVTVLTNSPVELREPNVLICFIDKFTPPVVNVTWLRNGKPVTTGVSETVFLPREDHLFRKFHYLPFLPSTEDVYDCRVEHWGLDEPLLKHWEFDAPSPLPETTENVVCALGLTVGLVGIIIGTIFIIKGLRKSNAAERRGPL

HLA-DRB1*0101 = molecular target: T1, HLA-DRB1*0101 (Homo sapiens, UniProt P01903+P01911, A100R/D57E/F55L/F60I/F76Y/I96L/L162R/M171V/P40L/Q125E/R42F/V115G/Y59C); assay: biochemical; assay type: binding; conditions: binding inhibition assay; NB = non-binder (no dose-dependent inhibition); read-out: DRB1*0101 IC50
T1 construct: purchased
In short: (§2)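 HLA-peptide complexes are captured with anti-HLA-DR antibody, and bound reference is quantified by europium-probe time-resolved fluorescence.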

HLA-DRB1*0701 = HLA-DRB1*0701 (Homo sapiens, UniProt P01903+P01911, A100R/A102G/A103Q/D57E/D86V/E43K/F76Y/K127E/L162R/M171V/P40G/Q125H/Q99D/R33Q/R42Y/R54Q/S133A/S66F/T210M/V115G/Y107V/Y59L/Y89S); assay: biochemical; assay type: binding; conditions: binding inhibition assay; NB = non-binder (no dose-dependent inhibition); read-out: DRB1*0701 IC50
In short: as §2

HLA-DRB1*1301 = HLA-DRB1*1301 (Homo sapiens, UniProt P01903+P01911, A100E/A169T/K41T/L162R/M171V/P40S/Q125H/Q178H/Q39Y/Q99D/R42S/S66N/T262R/W38E/Y61H); assay: biochemical; assay type: binding; conditions: binding inhibition assay; NB = non-binder (no dose-dependent inhibition); read-out: DRB1*1301 IC50
In short: as §2

HLA-DRB1*1501 = molecular target: T2, HLA-DRB1*1501 (Homo sapiens, UniProt P01903+P01911); assay: biochemical; assay type: binding; conditions: binding inhibition assay; NB = non-binder (no dose-dependent inhibition); read-out: DRB1*1501 IC50
T2 construct: purchased
In short: as §2

HLA-A*0101 = HLA-A*0101 (Homo sapiens, UniProt P04439, A114D/A174V/A182V/D101N/D185E/E176A/E190D/L180R/Q94H/R68K/S129P/T187R/V100A/V91M/W191G); assay: biochemical; assay type: binding; conditions: allele A*0101; fluorescence polarization competition
In short: as §1

[1] = fluorescence polarization competition, read-out: IC50 (nM), in vitro HLA binding affinity
[2] = cell-free competition, fluorescence polarization at 72 hours, Non-binder = no dose-dependent inhibition, read-out: IC50
[3] = fluorescence polarization competition

Compound | IC50 (HLA-B*4402; [1]) [nM] | IC50 (nM), in vitro HLA binding affinity (HLA-B*4402; [3]) | further results
CC(C)C[C@H](NC(=O)[C@H](CO)NC(=O)[C@H](CS)NC(=O)[C@@H]1CCCN1C(=O)[C@H](Cc1ccccc1)NC(=O)[C@H](CC(N)=O)NC(=O)[C@H](CC(N)=O)NC(=O)[C@H](CCC(=O)O)NC(=O)[C@@H](N)C(C)C)C(=O)N[C@@H](Cc1ccc(O)cc1)C(=O)O [AMA1_437] (H-VENNFPCSLY-OH) | 6020 |  | IC50 (HLA-A*0301): 85400 nM
CC[C@H](C)[C@H](NC(=O)[C@H](Cc1ccc(O)cc1)NC(=O)[C@H](CC(=O)O)NC(=O)[C@H](CO)NC(=O)[C@@H](NC(=O)[C@@H](NC(=O)[C@@H](NC(=O)[C@H](CCC(=O)O)NC(=O)[C@@H](N)CO)[C@@H](C)CC)[C@@H](C)O)[C@@H](C)CC)C(=O)O [CYRPA_147] (H-SEITISDYI-OH) | 5380 |  | 
CC(C)C[C@H](N)C(=O)N[C@@H](CCC(=O)O)C(=O)N[C@@H](Cc1ccccc1)C(=O)N[C@H](C(=O)N[C@@H](CS)C(=O)N[C@@H](CO)C(=O)N[C@@H](CC(N)=O)C(=O)N[C@@H](CCCNC(=N)N)C(=O)N[C@@H](CC(=O)O)C(=O)N[C@@H](Cc1ccccc1)C(=O)O)C(C)C [CYRPA_264] (H-LEFVCSNRDF-OH) | 7460 |  | 
CC[C@H](C)[C@H](NC(=O)[C@H](CC(=O)O)NC(=O)[C@H](CCC(=O)O)NC(=O)[C@H](Cc1ccc(O)cc1)NC(C)=O)C(=O)N[C@H](C(=O)N[C@@H](CC(C)C)C(=O)N[C@@H](CCCCN)C(=O)N[C@@H](CO)C(=O)N[C@@H](Cc1c[nH]cn1)C(=O)N[C@@H](CCSC)C(=O)N[C@@H](CC(N)=O)C(=O)N[C@@H](CCCNC(=N)N)C(=O)N[C@@H](CCC(=O)O)C(=O)N[C@@H](CO)C(=O)N[C@@H](CC(=O)O)C(=O)N[C@@H](CC(=O)O)C(N)=O)C(C)C [EBA175_015] (Ac-YEDIVLKSHMNRESDD-NH2) |  |  | IC50 (HLA-DRB1*0301): > 100 µM; IC50 (HLA-DRB1*0101): 19.7 µM; IC50 (HLA-DRB1*0701): > 100 µM; IC50 (HLA-DRB1*1301): 4.92 µM; IC50 (HLA-DRB1*1501): 36 µM
CC[C@H](C)[C@H](NC(=O)[C@H](CC(N)=O)NC(=O)[C@H](CC(N)=O)NC(=O)[C@H](Cc1ccccc1)NC(=O)[C@H](CC(N)=O)NC(=O)[C@H](CC(N)=O)NC(=O)[C@H](CC(N)=O)NC(=O)[C@H](CC(N)=O)NC(=O)[C@H](CO)NC(=O)[C@H](CCCNC(=N)N)NC(C)=O)C(=O)N1CCC[C@H]1C(=O)N[C@@H](CO)C(=O)N[C@@H](CCCNC(=N)N)C(=O)N[C@@H](Cc1ccc(O)cc1)C(=O)N[C@@H](CC(N)=O)C(=O)N[C@@H](CC(C)C)C(=O)N[C@@H](Cc1ccc(O)cc1)C(=O)N[C@@H](CC(=O)O)C(N)=O [EBA175_017B] (Ac-RSNNNNFNNIPSRYNLYD-NH2) |  |  | IC50 (HLA-DRB1*0301): > 100 µM; IC50 (HLA-DRB1*0101): 0.43 µM; IC50 (HLA-DRB1*1301): > 100 µM; IC50 (HLA-DRB1*1501): 23.6 µM
CC[C@H](C)[C@H](NC(=O)[C@H](Cc1c[nH]c2ccccc12)NC(=O)[C@H](CCC(N)=O)NC(=O)[C@@H](NC(=O)[C@@H](NC(=O)[C@H](CCC(N)=O)NC(=O)[C@H](CC(C)C)NC(=O)[C@H](CCC(=O)O)NC(=O)[C@@H](N)CCC(=O)O)[C@@H](C)CC)[C@@H](C)O)C(=O)O [EBA175_0316] (H-EELQITQWI-OH) |  |  | IC50 (HLA-B*4402; [2]): 19600 nM
CC(C)C[C@H](NC(=O)[C@@H](NC(=O)[C@H](Cc1c[nH]cn1)NC(=O)[C@H](Cc1c[nH]c2ccccc12)NC(=O)[C@H](CCC(=O)O)NC(=O)[C@@H](N)Cc1ccccc1)[C@@H](C)O)C(=O)N[C@@H](CO)C(=O)N[C@@H](CCCCN)C(=O)N[C@@H](CCC(=O)O)C(=O)N[C@@H](Cc1ccc(O)cc1)C(=O)O [EBA175_0375] (H-FEWHTLSKEY-OH) |  |  | IC50 (HLA-B*4402; [2]): 19100 nM
CC[C@H](C)[C@H](NC(=O)[C@H](CC(=O)O)NC(=O)[C@@H](NC(=O)[C@H](Cc1c[nH]cn1)NC(=O)[C@H](CO)NC(=O)[C@H](CC(C)C)NC(=O)[C@H](CCCNC(=N)N)NC(=O)[C@H](CCC(=O)O)NC(=O)[C@H](CCC(=O)O)NC(=O)[C@@H](N)CCC(=O)O)[C@@H](C)O)C(=O)O [EBA175_1211] (H-EEERLSHTDI-OH) |  |  | IC50 (HLA-B*4402; [2]): 19100 nM
CC[C@H](C)[C@H](NC(=O)[C@H](CCCNC(=N)N)NC(=O)[C@H](CC(N)=O)NC(=O)[C@H](Cc1ccccc1)NC(=O)[C@@H](NC(=O)[C@H](Cc1c[nH]cn1)NC(=O)[C@H](CCCCN)NC(=O)[C@H](CCSC)NC(=O)[C@H](CCC(=O)O)NC(=O)[C@@H](N)CCCCN)[C@@H](C)CC)C(=O)O [RH5_415] (H-KEMKHIFNRI-OH) | 39200 |  | 
CC[C@H](C)[C@H](NC(=O)[C@H](CCC(=O)O)NC(=O)[C@@H](N)CC(N)=O)C(=O)N[C@@H](CC(=O)O)C(=O)N[C@@H](CCCCN)C(=O)N[C@@H](CC(C)C)C(=O)N[C@H](C(=O)N[C@@H](Cc1ccccc1)C(=O)N[C@@H](CO)C(=O)N[C@@H](CC(C)C)C(=O)O)[C@@H](C)O [RIPR_0031] (H-NEIDKLTFSL-OH) | 332000 |  | 
CC(C)C[C@H](NC(=O)[C@H](Cc1ccc(O)cc1)NC(=O)[C@H](Cc1c[nH]cn1)NC(=O)[C@@H](NC(=O)[C@H](CC(C)C)NC(=O)[C@H](CO)NC(=O)[C@H](CCCCN)NC(=O)[C@H](CC(N)=O)NC(=O)[C@H](CCC(=O)O)NC(=O)[C@@H](N)Cc1ccc(O)cc1)[C@@H](C)O)C(=O)O [RIPR_0226] (H-YENKSLTHYL-OH) | 112000 |  | 
CC[C@H](C)[C@H](NC(=O)[C@H](CC(=O)O)NC(=O)[C@H](CCC(N)=O)NC(=O)[C@@H](NC(=O)[C@H](CS)NC(=O)[C@H](CCCNC(=N)N)NC(=O)[C@H](Cc1ccc(O)cc1)NC(=O)[C@H](CC(N)=O)NC(=O)[C@H](CCC(=O)O)NC(=O)[C@@H](N)CCC(=O)O)[C@@H](C)O)C(=O)O [RIPR_0283] (H-EENYRCTQDI-OH) | 674000 |  | 
CC(C)C[C@H](NC(=O)[C@H](CC(N)=O)NC(=O)[C@H](CC(N)=O)NC(=O)[C@H](CCCCN)NC(=O)[C@H](Cc1ccc(O)cc1)NC(=O)[C@H](Cc1ccccc1)NC(=O)[C@H](CCCCN)NC(=O)[C@H](CCC(=O)O)NC(=O)[C@@H](N)CCCCN)C(=O)N[C@@H](Cc1ccc(O)cc1)C(=O)O [RIPR_0378] (H-KEKFYKNNLY-OH) | 919000 |  | 
DEYIHKLIL [RH5_361] |  | Non-binder | 
EEKDDIKNG [RH5_049] |  | Non-binder | 
KDLSDMTNI [RH5_378] |  | Non-binder | 
KEIDNDKENI [RH5_062] |  | Non-binder | 
KEKHLNNIF [RH5_486] |  | Non-binder | 
NDVPIKMEYF [RH5_506] |  | Non-binder | 
NEKNDVKNN [RH5_123] |  | Non-binder | 
NENNENNFL [EBA175_1454] |  |  | IC50 (nM) (HLA-B*4402; cell-free competition, fluorescence polarization at 72 hours, Non-binder = no dose-dependent inhibition): Non-binder
NEYSLFITS [RH5_464] |  | Non-binder | 
SECDIGLIY [RIPR_0611] |  | Non-binder | IC50 (nM), in vitro HLA binding affinity (HLA-A*0101): Non-binder
